Laboratory results: the NIST ThermoML archive (doi:10.1021/je4005323)
± gives the expanded uncertainty stated by the source.

Settings: Liquid; for speed of sound: Pulse-echo method; for mass density: Vibrating tube method

CCCCC/C=C\C/C=C\CCCCCCCC(=O)OC [methyl (Z,Z)-9,12-octadecadienate]
Settings | mass density, 293.15 K [kg/m3] | mass density, 303.15 K [kg/m3] | mass density, 313.15 K [kg/m3] | mass density, 323.15 K [kg/m3] | mass density, 333.15 K [kg/m3] | mass density, 343.15 K [kg/m3] | speed of sound, 283.15 K [m/s] | speed of sound, 303.15 K [m/s] | speed of sound, 323.15 K [m/s] | speed of sound, 343.15 K [m/s]
101.3 kPa | 885.2 ± 0.6 | 877.7 ± 0.6 | 870.9 ± 0.6 | 863.7 ± 0.6 | 856.3 ± 0.6 | 849.1 ± 0.6 | 1455 ± 3.2 | 1382.9 ± 3.1 | 1312.6 ± 3 | 1245.1 ± 2.8
10000 kPa | 891.2 ± 0.6 | 884 ± 0.6 | 877.1 ± 0.6 | 870.1 ± 0.6 | 863 ± 0.6 | 856.2 ± 0.6 | 1498.2 ± 3.3 | 1428.9 ± 3.2 | 1361.4 ± 3 | 1297.9 ± 2.9
20000 kPa | 896.6 ± 0.6 | 889.6 ± 0.6 | 882.9 ± 0.6 | 876.3 ± 0.6 | 869.5 ± 0.6 | 863 ± 0.6 | 1539 ± 3.4 | 1472.2 ± 3.2 | 1407.2 ± 3.1 | 1346.9 ± 3
30000 kPa | 901.8 ± 0.6 | 895 ± 0.6 | 888.5 ± 0.6 | 882 ± 0.6 | 875.4 ± 0.6 | 869.3 ± 0.6 | 1577.6 ± 3.4 | 1513.6 ± 3.3 | 1450.8 ± 3.2 | 1392.6 ± 3.1
40000 kPa | 906.8 ± 0.6 | 900.1 ± 0.6 | 893.7 ± 0.6 | 887.3 ± 0.6 | 881.3 ± 0.6 | 875.1 ± 0.6 | 1614.3 ± 3.5 | 1552 ± 3.4 | 1491.3 ± 3.3 | 1435.4 ± 3.2
50000 kPa | 911.4 ± 0.6 | 905 ± 0.6 | 898.8 ± 0.6 | 892.4 ± 0.7 | 886.5 ± 0.7 | 880.8 ± 0.7 | 1649.2 ± 3.6 | 1588.6 ± 3.5 | 1530.3 ± 3.3 | 1475.1 ± 3.2
60000 kPa | 915.9 ± 0.6 | 909.5 ± 0.7 | 903.3 ± 0.7 | 897.4 ± 0.7 | 891.5 ± 0.7 | 885.9 ± 0.7 | 1682.6 ± 3.6 | 1623.5 ± 3.5 | 1567.2 ± 3.4 | 1513.2 ± 3.3
70000 kPa | 920.2 ± 0.7 | 914 ± 0.7 | 908 ± 0.7 | 902.1 ± 0.7 | 896.4 ± 0.7 | 890.9 ± 0.7 | 1714 ± 3.7 | 1656.3 ± 3.6 | 1601.4 ± 3.5 | 1549.4 ± 3.4
80000 kPa | 924 ± 0.7 | 918.1 ± 0.7 | 912.2 ± 0.7 | 906.7 ± 0.7 | 900.9 ± 0.7 | – | 1745.2 ± 3.8 | 1688.3 ± 3.6 | 1634.3 ± 3.5 | –
90000 kPa | 928.2 ± 0.7 | 922.2 ± 0.7 | 916.6 ± 0.7 | 910.9 ± 0.7 | 905.4 ± 0.7 | – | 1774.4 ± 3.8 | 1719.1 ± 3.7 | 1666.2 ± 3.6 | –
100000 kPa | 931.3 ± 0.7 | 926.2 ± 0.7 | 920.6 ± 0.7 | 915.1 ± 0.7 | 910 ± 0.7 | – | 1803.2 ± 5.6 | 1748.7 ± 5.5 | 1697.2 ± 5.3 | –
110000 kPa | – | – | – | – | – | – | 1830.9 ± 5.7 | 1776.9 ± 5.5 | 1726.4 ± 5.4 | –
120000 kPa | – | – | – | – | – | – | 1857.8 ± 5.8 | 1804.4 ± 5.6 | 1754.6 ± 5.5 | –
130000 kPa | – | – | – | – | – | – | 1884.6 ± 5.8 | 1831.3 ± 5.7 | 1782.4 ± 5.5 | –
140000 kPa | – | – | – | – | – | – | 1909.9 ± 5.9 | 1857 ± 5.8 | 1808.7 ± 5.6 | –
150000 kPa | – | – | – | – | – | – | 1934.7 ± 6 | 1883.6 ± 5.8 | 1834.7 ± 5.7 | –
170000 kPa | – | – | – | – | – | – | – | 1932.3 ± 6 | 1884.5 ± 5.8 | –
190000 kPa | – | – | – | – | – | – | – | 1979.7 ± 6.1 | 1931.7 ± 6 | –
210000 kPa | – | – | – | – | – | – | – | 2023.6 ± 6.2 | 1977.6 ± 6.1 | –
